The record followed here is US6406708B1, “Therapeutic compositions” (Interhealth AB, priority 1998, dated 2002).

SMILES strings stand for the structures.

For the assay the following is noted: 0.15% of sorbic acid in squalane/cyclodextrin composition.

As to `C/C=C/C=C/C(=O)O` [sorbic acid], the anti-acne effect entry is recorded as “does not give any anti-acne effect”.
